From patent publication US7981443B2, “Method of treating sleep disordered breathing using topiramate” (priority 2000, dated 2011)

Key:
[1] = system: glutamate in the hippocampus; conditions: in vivo; cited from earlier work
[2] = system: aminohydroxymethylisoxazole propionic acid (AMPA) glutamate receptor subtype site; conditions: rat hippocampal pyramidal neurones; effect at AMPA site; cited from earlier work
[3] = system: obstructive sleep apnoea (OSA); experiment: Double-blind, placebo controlled cross-over study of topiramate in patients with light to moderate OSA; format: in vivo
Protocol: A double-blind, placebo controlled cross-over study of topiramate was undertaken in 2 patients with light to moderate OSA (A/H index, 22 and 35 on previous screening). Topiramate (100 mg b.i.d or corresponding placebo) was administered for 10 days in each cross-over period. A wash-out period of one week was applied between the two treatment periods.

[4] = system: voltage-gated sodium electrogenesis; conditions: specific action on voltage-gated sodium electrogenesis in certain areas of the nervous system; cited from earlier work
[5] = system: carbonic anhydrase; conditions: cited from earlier work
[6] = system: N-methyl-D-aspartate (NMDA) mediated glutamate receptor subtype site; conditions: cited from earlier work

Compound: CC1(C)O[C@@H]2[C@@H](CO[C@@]3(COS(N)(=O)=O)OC(C)(C)O[C@@H]23)O1 [topiramate, 2,3:4,5-di-o-isopropylidene-β-D-fructopyranose sulfamate]
- Abnormally high concentrations of glutamate in the hippocampus [1]: reduce
- Kainate-elicited excitatory response [2]: blocked
- Blood pressure ([3]; between the two study nights (topiramate vs placebo)): did not differ
- Side effects ([3]; during the study period): No side effects were reported
- A/H index during topiramate ([3]; first patient (placebo 24), 100 mg b.i.d for 10 days): 9
- A/H index during topiramate ([3]; second patient (placebo 33), 100 mg b.i.d for 10 days): 6
- Daytime sleepiness ([3]; spontaneous reporting by both patients, 100 mg b.i.d for 10 days): markedly reduced
- Cellular activity / cellular bursting activity [4]: dose-dependently reduce cellular activity
- Inhibition of the enzyme carbonic anhydrase [5]: weakly inhibit
- Effect at the NMDA mediated glutamate receptor subtype site [6]: had no effect
